# Test results taken from ChEMBL document CHEMBL1145039, “Synthesis and biological evaluation of thiol-based inhibitors of glutamate carboxypeptidase II: discovery of an orally active GCP II inhibitor” (J Med Chem, 2003).
# Assays:
# [1] = target: T1, Glutamate carboxypeptidase 2 (Homo sapiens, UniProt Q04609);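 as to IC50: inhibition of binding of tritium-labelled N-acetyl-L-aspartyl-L-glutamate to the enzyme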
# Description: Inhibition of N-acetyl-L-aspartyl-[3H]L-glutamate binding to glutamate carboxypeptidase II (GCP II)
# [2] = target: T1, Glutamate carboxypeptidase 2; remark: listed apart in the source
# Description: In vitro inhibitory activity against glutamate carboxypeptidase II (GCP II) using N-acetyl-L-aspartyl-[3H]L-glutamate as a substrate
# [3] = Pharmacokinetic constant Area under curve(AUC) was determined after intravenously administered dose of 10 mgkg in rats; type: ADME, organism-based; set-up: dose 10 mgkg, route intravenous; conditions: rat, in vivo, iv, 10 mg/kg
# [4] = Plasma concentration was determined after orally administered dose of 10 mgkg in rats; type: ADME, organism-based; set-up: dose 10 mgkg, route oral; conditions: rat, po, 10 mg/kg
# [5] = Pharmacokinetic constant(Tmax) after orally administered dose of 10 mgkg in rats; type: ADME, organism-based; set-up: dose 10 mgkg, route oral; conditions: rat, in vivo, po, 10 mg/kg
# [6] = Pharmacokinetic constant Area under curve(AUC) was determined after orally administered dose of 10 mgkg in rats; type: ADME, organism-based; set-up: dose 10 mgkg, route oral; conditions: rat, in vivo, po, 10 mg/kg
# [7] = Half life after intravenously administered dose of 10 mgkg in rats; type: ADME, organism-based; set-up: dose 10 mgkg, route intravenous; conditions: rat, in vivo, iv, 10 mg/kg
# [8] = Half life after orally administered dose of 10 mgkg in rats; type: ADME, organism-based; set-up: dose 10 mgkg, route oral; conditions: rat, in vivo, po, 10 mg/kg
# [9] = Bioavailability after orally administered dose of 10 mgkg in rats; type: ADME, organism-based; conditions: rat, in vivo, po
# T1 sequence (Q04609 whole entry): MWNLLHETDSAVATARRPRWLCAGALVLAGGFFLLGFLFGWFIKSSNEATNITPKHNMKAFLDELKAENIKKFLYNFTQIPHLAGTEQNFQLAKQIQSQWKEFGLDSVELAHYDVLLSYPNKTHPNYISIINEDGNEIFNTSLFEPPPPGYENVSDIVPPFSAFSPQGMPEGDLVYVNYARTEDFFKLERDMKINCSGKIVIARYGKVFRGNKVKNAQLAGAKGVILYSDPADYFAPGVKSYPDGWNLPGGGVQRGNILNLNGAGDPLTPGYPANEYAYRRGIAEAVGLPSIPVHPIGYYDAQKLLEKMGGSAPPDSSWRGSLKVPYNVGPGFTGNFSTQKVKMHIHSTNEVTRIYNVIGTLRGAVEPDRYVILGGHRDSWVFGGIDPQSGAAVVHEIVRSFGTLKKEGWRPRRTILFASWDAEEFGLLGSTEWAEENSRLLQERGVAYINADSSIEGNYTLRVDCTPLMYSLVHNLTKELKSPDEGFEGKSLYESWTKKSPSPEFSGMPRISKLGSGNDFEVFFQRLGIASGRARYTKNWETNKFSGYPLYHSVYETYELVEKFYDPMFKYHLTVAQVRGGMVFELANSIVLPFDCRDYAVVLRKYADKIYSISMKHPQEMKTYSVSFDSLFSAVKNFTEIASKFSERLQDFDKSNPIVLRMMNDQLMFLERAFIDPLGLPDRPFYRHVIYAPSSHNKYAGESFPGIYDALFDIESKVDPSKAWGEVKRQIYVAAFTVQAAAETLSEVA
smiles,measurement,setting,value
O=C(O)CCC(S)C(=O)O (stereo not given),IC50,[1],2600 nM
O=C(O)CCC(CCCCS)C(=O)O (stereo not given),IC50,[1],1100 nM
O=C(O)CCC(CCP(=O)(O)O)C(=O)O (stereo not given),IC50,[1],1200 nM
O=C(O)C(CS)Cc1ccccc1 (stereo not given),Ki,[2],11 nM
O=C(O)CCC(CCCSSCCCC(CCC(=O)O)C(=O)O)C(=O)O (stereo not given),AUC,[3],190 ng·h/mL
same,Cmax,[4],44 ng/mL
same,Tmax,[5],54 min
same,IC50,[1],3100 nM
same,AUC,[6],53 ng·h/mL
same,half-life,[7],22.2 min
same,half-life,[8],116 min
O=C(O)CCCCS,IC50,[1],1400 nM
O=C(O)CCC(CS)C(=O)O (stereo not given),IC50,[1],6000 nM
O=C(O)CCC(C(=O)O)P(=O)(O)O (stereo not given),IC50,[1],1400 nM
O=C(O)CCC(CCCS)C(=O)O (stereo not given),bioavailability,[9],71%
same,AUC,[3],2550 ng·h/mL
same,Cmax,[4],2230 ng/mL
same,Tmax,[5],9.6 min
same,AUC,[6],1820 ng·h/mL
same,half-life,[7],63 min
same,half-life,[8],70.8 min
O=C(O)CCC(CCS)C(=O)O (stereo not given),IC50,[1],580 nM
CSCCCC(CCC(=O)O)C(=O)O (stereo not given),IC50,[1],6500 nM
O=C(O)CCC(CCCCCS)C(=O)O (stereo not given),IC50,[1],2600 nM
O=C(O)CCC(CCCSC(c1ccccc1)(c1ccccc1)c1ccccc1)C(=O)O (stereo not given),IC50,[1],> 10000 nM
